Structures are written as SMILES.

This data set in a line: Form stability experiment of crystalline forms (XRD crystalline form test after storage). The conditions noted are these: for Test result after 30 day (XRD crystalline form): 20 mg placed at 60° C. or at room temperature under dry conditions for 30 days; for form stability on storage (form kept or changed, appearance): one month in a dry environment at room temperature and at 60° C. Type of data set: physicochemical. How it is done:
X-ray powder diffraction (XRPD): performed on a Bruker D8 Advance diffractometer. Samples are tested at room temperature. Testing conditions: 2θ scan range 3 to 40°, step size 0.02° and speed 0.2 s/step.
Form stability experiment of crystalline forms: Placed 20 mg abemaciclib mesylate in Preparation Example 1, abemaciclib mesylate Form 1, Form 2, Form 5, Form 6, and Form 8 of the present invention at 60° C. or at room temperature under dry conditions for 30 days, then carried out XRD crystalline form test.

In the case of `CCN1CCN(Cc2ccc(Nc3ncc(F)c(-c4cc(F)c5nc(C)n(C(C)C)c5c4)n3)nc2)CC1.CS(=O)(=O)O` [Abemaciclib mesylate Form 6, N-(5-((4-ethylpiperazin-1-yl)methyl)pyridin-2-yl)-5-fluoro-4-(4-fluoro-1-isopropyl-2-methyl-1H-benzo[d]imidazol-6-yl)pyrimidin-2-amine methanesulfonate], the “Test result after 30 day (XRD crystalline form)” value (shortened to “Test result after 30 day”) (listed as Form 6, methanesulfonate) was “still kept their original crystalline forms” and the “Test result after 30 day” value (methanesulfonate) is given as “Form 6”. Besides, the “form stability on storage (form kept or changed, appearance)” value (methanesulfonate) was “kept its form unchanged”.
Regarding `CCN1CCN(Cc2ccc(Nc3ncc(F)c(-c4cc(F)c5nc(C)n(C(C)C)c5c4)n3)nc2)CC1.CS(=O)(=O)O` [Abemaciclib mesylate, N-(5-((4-ethylpiperazin-1-yl)methyl)pyridin-2-yl)-5-fluoro-4-(4-fluoro-1-isopropyl-2-methyl-1H-benzo[d]imidazol-6-yl)pyrimidin-2-amine methanesulfonate], under “methanesulfonate”, the “Test result after 30 day” value is “Amorphous”. Besides, the “form stability on storage (form kept or changed, appearance)” value was “weak crystalline state and discoloration appeared” (listed as amorphos abemaciclib mesylate, methanesulfonate); “weak crystalline state and discoloration appeared” (listed as amorphous abemaciclib mesylate, methanesulfonate).
`CCN1CCN(Cc2ccc(Nc3ncc(F)c(-c4cc(F)c5nc(C)n(C(C)C)c5c4)n3)nc2)CC1.CS(=O)(=O)O` [Abemaciclib mesylate Form 2, N-(5-((4-ethylpiperazin-1-yl)methyl)pyridin-2-yl)-5-fluoro-4-(4-fluoro-1-isopropyl-2-methyl-1H-benzo[d]imidazol-6-yl)pyrimidin-2-amine methanesulfonate]: where the note is “listed as Form 2, methanesulfonate”, the “Test result after 30 day” value is on record as “still kept their original crystalline forms”. For the same molecule, where the note is “methanesulfonate”, the “Test result after 30 day” value was “Form 2” and the “form stability on storage (form kept or changed, appearance)” value is reported as “kept its form unchanged”.
Regarding `CCN1CCN(Cc2ccc(Nc3ncc(F)c(-c4cc(F)c5nc(C)n(C(C)C)c5c4)n3)nc2)CC1.CS(=O)(=O)O` [Abemaciclib mesylate Form 5, N-(5-((4-ethylpiperazin-1-yl)methyl)pyridin-2-yl)-5-fluoro-4-(4-fluoro-1-isopropyl-2-methyl-1H-benzo[d]imidazol-6-yl)pyrimidin-2-amine methanesulfonate], the “Test result after 30 day” value (listed as Form 5, methanesulfonate) is “still kept their original crystalline forms”. Besides, where the note is “methanesulfonate”, the “Test result after 30 day” value was “Form 5” and the “form stability on storage (form kept or changed, appearance)” value is listed as “kept its form unchanged”.
In the case of `CCN1CCN(Cc2ccc(Nc3ncc(F)c(-c4cc(F)c5nc(C)n(C(C)C)c5c4)n3)nc2)CC1.CS(=O)(=O)O` [Abemaciclib mesylate Form 8, N-(5-((4-ethylpiperazin-1-yl)methyl)pyridin-2-yl)-5-fluoro-4-(4-fluoro-1-isopropyl-2-methyl-1H-benzo[d]imidazol-6-yl)pyrimidin-2-amine methanesulfonate], the “Test result after 30 day” value by setting is: (listed as Form 8, methanesulfonate) “still kept their original crystalline forms”; (methanesulfonate) “Form 8”. In addition, where the note is “methanesulfonate”, the “form stability on storage (form kept or changed, appearance)” value is “kept its form unchanged”.
`CCN1CCN(Cc2ccc(Nc3ncc(F)c(-c4cc(F)c5nc(C)n(C(C)C)c5c4)n3)nc2)CC1.CS(=O)(=O)O` [Abemaciclib mesylate Form 1, N-(5-((4-ethylpiperazin-1-yl)methyl)pyridin-2-yl)-5-fluoro-4-(4-fluoro-1-isopropyl-2-methyl-1H-benzo[d]imidazol-6-yl)pyrimidin-2-amine methanesulfonate]: the “Test result after 30 day” value reads like this: (listed as Form 1, methanesulfonate) “still kept their original crystalline forms”; (methanesulfonate) “Form 1”. In addition, under “methanesulfonate”, the “form stability on storage (form kept or changed, appearance)” value is reported as “kept its form unchanged”.

The record behind these values is patent US20210179585A1, “CRYSTAL FORM OF ABEMACICLIB MESYLATE, PREPARATION METHOD THEREFOR AND PHARMACEUTICAL COMPOSITION THEREOF” (Hangzhou SoliPharma Co., Ltd., priority 2018, published 2021).
